Source: US6133292A, “Diaryl-5-alkyl-5-methyl-2-(5H)-furanones as selective cyclooxygenase-2-inhibitors” (Merck Frosst Canada & Co., priority 1998, dated 2000)

Experiments:
[1] = target: T1, COX-1 (Homo sapiens, UniProt P23219); test: Assay of COX-1 activity from U937 cell microsomes; type: biochemical; parameters: Assay of COX-1 Activity from U937 cell microsomes; endogenous in cells; host or cells: U937 cells, 100,000 x g microsomal fraction; settings: read-out: U937 Cox-1 (IC50, inhibition of PGE2 production)
T1 sequence (P23219 24-599): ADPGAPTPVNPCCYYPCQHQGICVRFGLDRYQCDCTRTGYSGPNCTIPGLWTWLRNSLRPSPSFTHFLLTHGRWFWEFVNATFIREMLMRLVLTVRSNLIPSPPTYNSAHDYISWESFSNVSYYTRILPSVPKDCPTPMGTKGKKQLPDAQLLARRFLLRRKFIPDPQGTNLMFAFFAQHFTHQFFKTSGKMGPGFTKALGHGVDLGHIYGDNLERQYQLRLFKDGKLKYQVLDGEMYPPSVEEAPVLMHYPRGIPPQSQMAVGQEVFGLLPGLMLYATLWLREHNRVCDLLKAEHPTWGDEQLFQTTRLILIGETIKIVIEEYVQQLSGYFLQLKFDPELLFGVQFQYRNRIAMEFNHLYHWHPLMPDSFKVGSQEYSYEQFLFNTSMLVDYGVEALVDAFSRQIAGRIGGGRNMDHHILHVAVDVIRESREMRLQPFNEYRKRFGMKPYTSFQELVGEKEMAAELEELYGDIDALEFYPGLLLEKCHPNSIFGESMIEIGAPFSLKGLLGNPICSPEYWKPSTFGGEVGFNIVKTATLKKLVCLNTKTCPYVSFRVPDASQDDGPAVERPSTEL
Experimental: Assay of COX-1 Activity from U937 cell microsomes
U 937 cells are pelleted by centrifugation at 500 x g for 5 min and washed once with phosphate-buffered saline and repelleted. Cells are resuspended in homogenization buffer consisting of 0.1 M Tris-HCl, pH 7.4, 10 mM EDTA, 2 μg/ml leupeptin, 2 μg/ml soybean trypsin inhibitor, 2 μg/ml aprotinin and 1 mM phenyl methyl sulfonyl fluoride. The cell suspension is sonicated 4 times for 10 sec and is centrifuged at 10,000 x g for 10 min at 4° C. The supernatant is centrifuged at 100,000 x g for 1 hr at 4° C. The 100,000 x g microsomal pellet is resuspended in 0.1 M Tris-HCl, pH 7.4, 10 mM EDTA to approximately 7 mg protein/mil and stored at -80° C.
Microsomal preparations are thawed immediately prior to use, subjected to a brief sonication, and then diluted to a protein concentration of 125 μg/ml in 0.1 M Tris-HCl buffer, pH 7.4 containing 10 mM EDTA, 0.5 mM phenol, 1 mM reduced glutathione and 1 μM hematin. Assays are performed in duplicate in a final volume of 250 μl. Initially, 5 μl of DMSO vehicle or drug in DMSO are added to 20 μl of 0.1 M Tris-HCl buffer, pH 7.4 containing 10 mM EDTA in wells of a 96-deepwell polypropylene titre plate. 200 μl of the microsomal preparation are then added and pre-incubated for 15 min at room temperature before addition of 25 μl of […] arachidonic acid in […] Tris-HCl and 10 mM EDTA, pH 7.4. Samples are incubated for 40 min at room temperature and the reaction is stopped by the addition of 25 μl of 1 N HCl. Samples are neutralized with 25 μl of 1 N NaOH prior to quantitation of PGE2 content by radioimmunoassay (Dupont-NEN or Amersham assay kits). Cyclooxygenase activity is defined as the difference between PGE2 levels in samples incubated in the presence of arachidonic acid and ethanol vehicle.
(§1) Compounds of the present invention are inhibitors of COX-2 and are thereby useful in the treatment of COX-2 mediated diseases as enumerated above. The activities of the compounds against cyclooxygenase may be seen in the representative results shown below. In the assay, inhibition is determined by measuring the amount of prostaglandin E2 (PGE2) synthesized in the presence of arachidonic acid, COX-1 or COX-2 and a putative inhibitor. The IC50 values represent the concentration of putative inhibitor required to lower PGE2 synthesis to 50% of that obtained as compared to the uninhibited control.

[2] = target: T1, COX-1; test: Human whole blood assay, COX-1 (clotting-induced TxB2 production); type: cell-based; parameters: platelets in whole blood contain a large amount of the COX-1 enzyme; from tissue; host or cells: fresh human whole blood without anticoagulant, platelets; settings: clotting-induced TxB2, 1 hour at 37° C, read-out: HWB Cox-1 (IC50)
Experimental: (§2) Human whole blood provides a protein and cell-rich milieu appropriate for the study of biochemical efficacy of anti-inflammatory compounds such as selective COX-2 inhibitors. […] This is consistent with the observation that COX-2 inhibitors have no effect on PGE2 production in normal blood. These inhibitors are active only after incubation of human whole blood with LPS, which induces COX-2. This assay can be used to evaluate the inhibitory effect of selective COX-2 inhibitors on PGE2 production. As well, platelets in whole blood contain a large amount of the COX-1 enzyme. Immediately following blood clotting, platelets are activated through a thrombin-mediated mechanism. This reaction results in the production of thromboxane B2 (TXB2) via activation of COX-1. Thus, the effect of test compounds on TxB2 levels following blood clotting can be examined and used as an index for COX-1 activity. Therefore, the degree of selectivity by the test compound can be determined by measuring the levels of PGE2 after LPS induction (COX-2) and TxB2 following blood clotting (COX-1) in the same assay.
B. COX-1 (Clotting-induced TxB2 production)
Fresh blood is collected into vacutainers containing no anticoagulants. […] The tubes are vortexed and incubated at 37° C. for 1 hour to allow blood to clot. At the end of incubation, serum is obtained by centrifugation (12,000 x g for 5 min.). A 100 μL aliquot of serum is mixed with 400 μL of methanol for protein precipitation. The supernatant is obtained and is assayed for TxB2 using a enzyme immunoassay kit (Cayman, #519031) according to the manufacturer's instruction. […]

[3] = Pharmacokinetics in rats (half-life); type: in vivo, rat (male Sprague Dawley); settings: rat, blood, read-out: T 1/2 in Rats (converted)
Source text: Per Os Pharmacokinetics in Rats--Procedure:
The animals are housed, fed and cared for according to the Guidelines of the Canadian Council on Animal Care. Male Sprague Dawley rats (325-375 g) are fasted overnight prior to each PO blood level study. The rats are placed in the restrainer one at a time and the box firmly secured. The zero blood sample is obtained by nicking a small (1 mm or less) piece off the tip of the tail. The tail is then stroked with a firm but gentle motion from the top to the bottom to milk out the blood. Approximately 1 mL of blood is collected into a heparirnized vacutainer tube.
Compounds are prepared as required, in a standard dosing volume of 10 mL/kg, and administered orally by passing a 16 gauge, 3" gavaging needle into the stomach. Subsequent bleeds are taken in the same manner as the zero bleed except that there is no need to nick the tail again. The tail is cleaned with a piece of gauze and milked/stroked as described above into the appropriately labelled tubes.
Immediately after sampling, blood is centrifuged, separated, put into clearly marked vials and stored in a freezer until analysed. Typical time points for determination of rat blood levels after PO dosing are 0, 15 min, 30 min, 1 h, 2 h, 4 h, and 6 h.
After the 4 hr time point bleed, food is provided to the rats ad libitum. Water is provided at all times during the study.
The following vehicles may be used in PO rat blood level determinations:
Compounds for PO blood levels can be in suspension form. For better dissolution, the solution can be placed in a sonicator for approximately 5 minutes.
For analysis, aliquots are diluted with an equal volume of acetonitrile and centrifuged to remove protein precipitate. The supernatant is injected directly onto a C-18 HPLC column with UV detection. Quantitation is done relative to a clean blood sample spiked with a known quantity of drug.
Intravenous Pharmacokinetics in Rats--Procedure
The animals are housed, fed and cared for according to the Guidelines of the Canadian Council on Animal Care. Male Sprague Dawley (325-375 g) rats are placed in plastic shoe box cages with a suspended floor, cage top, water bottle and food. The compound is prepared as required, in a standard dosing volume of 1 mL/kg.
Rats are bled for the zero blood sample and dosed under CO2 sedation. The rats, one at a time, are placed in a primed CO2 chamber and taken out as soon as they have lost their righting reflex. The rat is then placed on a restraining board, a nose cone with CO2 delivery is placed over the muzzle and the rat restrained to the board with elastics. With the use of forceps and scissors, the jugular vein is exposed and the zero sample taken, followed by a measured dose of compound which is injected into the jugular vein. Light digital pressure is applied to the injection site, and the nose cone is removed. The time is noted. This constitutes the zero time point.
The 5 min bleed is taken by nicking a piece (1-2 mm) off the tip of the tail. The tail is then stroked with a firm but gentle motion from the top of the tail to the bottom to milk the blood out of the tail. Approximately 1 mL of blood is collected into a heparinized collection vial. Subsequent bleeds are taken in the same fashion, except that there is no need to nick the tail again. The tail is cleaned with a piece of gauze and bled, as described above, into the appropriate labelled tubes. Typical time points for determination of rat blood levels after I.V. dosing are either a) 0, 5 min, 15 min, 30 min, 1 h, 2 h, 6 h, or b) 0, 5 min, 30 min, 1 h, 2 h, 4 h, 6 h.
The following vehicles may be used in IV rat blood level determinations:
DMSO (dimethylsulfoxide): Restricted to a dose volume of 0.1 mL per animal
PEG 200: Not more than 60% mixed with 40% sterile water --1 mL/kg
With Dextrose, either sodium bicarbonate or sodium carbonate can be added if the solution is cloudy. […]

[4] = target: T2, COX-2 (Homo sapiens, UniProt P35354); test: Human whole blood assay, COX-2 (LPS-induced PGE2 production); type: cell-based; parameters: incubation of human whole blood with LPS, which induces COX-2; from tissue; host or cells: fresh heparinized human whole blood from male and female volunteers, LPS-stimulated; settings: 24 hours at 37° C, read-out: HWB Cox-2 (IC50, inhibition of PGE2 production)
T2 sequence (P35354 18-604): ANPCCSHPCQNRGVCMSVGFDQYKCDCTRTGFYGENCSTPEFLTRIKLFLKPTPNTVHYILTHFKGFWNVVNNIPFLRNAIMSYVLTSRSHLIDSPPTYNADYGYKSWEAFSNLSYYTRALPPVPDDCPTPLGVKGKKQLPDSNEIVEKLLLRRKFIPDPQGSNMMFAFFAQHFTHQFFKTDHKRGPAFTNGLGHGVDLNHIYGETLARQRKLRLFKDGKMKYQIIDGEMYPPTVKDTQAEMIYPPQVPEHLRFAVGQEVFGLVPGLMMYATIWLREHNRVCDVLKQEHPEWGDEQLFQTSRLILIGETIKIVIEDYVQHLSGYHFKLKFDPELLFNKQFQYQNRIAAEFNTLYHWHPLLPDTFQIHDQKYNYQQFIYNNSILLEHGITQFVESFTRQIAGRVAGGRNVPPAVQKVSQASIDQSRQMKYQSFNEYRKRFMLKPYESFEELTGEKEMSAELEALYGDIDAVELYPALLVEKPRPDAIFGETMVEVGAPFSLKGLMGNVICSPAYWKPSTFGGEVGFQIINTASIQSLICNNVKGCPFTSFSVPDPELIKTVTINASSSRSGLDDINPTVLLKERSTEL
Experimental: as §2
A. COX-2 (LPS-induced PGE9 production)
Fresh blood is collected in heparinized tubes by venipuncture from both male and female volunteers. The subjects have no apparent inflammatory conditions and have not taken any NSAIDs for at least 7 days prior to blood collection. Plasma is immediately obtained from a 2 mL blood aliquot to use as blank (basal levels of PGE2). The remaining blood is incubated with LPS (100 μg/ml final concentration, Sigma Chem, #L-2630 from E. coli; diluted in 0.1% BSA (Phosphate buffered saline) for 5 minutes at room temperature. Five hundred μL aliquots of blood are incubated with either 2 μL of vehicle (DMSO) or 2 μL of a test compound at final concentrations varying from 10 nM to 30 μM for 24 hours at 37° C. At the end of the incubation, the blood is centrifuged at 12,000 x g for 5 minutes to obtain plasma. A 100 μL aliquot of plasma is mixed with 400 μL of methanol for protein precipitation. The supernatant is obtained and is assayed for PGE2 using a radioimmunoassay kit (Amersham, RPA#530) after conversion of PGE2 to its methyl oximate derivative according to the manufacturer's procedure.
as §1

SMILES	IC50 [1] [µM]	IC50 [2] [µM]	half-life [3] [h]	IC50 [4] [µM]
CC1(C)OC(=O)C(c2ccc(F)c(F)c2)=C1c1ccc(S(C)(=O)=O)cc1 [Compound T3-2, 3-(3,4-difluorophenyl)-5,5-dimethyl-4-[4-(methylsulfonyl)phenyl]-2,5-dihydro-2-furanone, reference compound]	10 to 30	> 30	> 24	–
CCC1(C)OC(=O)C(c2ccccc2)=C1c1ccc(S(C)(=O)=O)cc1 (stereo not drawn) [a, 5-ethyl-5-methyl-4-[4-(methylsulfonyl)phenyl]-3-phenyl-2,5-dihydro-2-furanone]	3 to 10	> 30	–	< 0.37
CCC1(C)OC(=O)C(c2cccc(F)c2)=C1c1ccc(S(C)(=O)=O)cc1 (stereo not drawn) [f, 5-ethyl-3-(3-fluorophenyl)-5-methyl-4-[4-(methylsulfonyl)phenyl]-2,5-dihydro-2-furanone]	> 10	> 30	–	0.48
